Molecular target: T1, TON_0340 (Thermococcus onnurineus, UniProt B6YTD8)
T1 construct: C-terminal CPD-(His)10 fusion auto-cleaved with phytate; E. coli BL21(DE3) RIPL; assay sample from dissolved crystals, EDTA-treated
T1 sequence (B6YTD8 1-268): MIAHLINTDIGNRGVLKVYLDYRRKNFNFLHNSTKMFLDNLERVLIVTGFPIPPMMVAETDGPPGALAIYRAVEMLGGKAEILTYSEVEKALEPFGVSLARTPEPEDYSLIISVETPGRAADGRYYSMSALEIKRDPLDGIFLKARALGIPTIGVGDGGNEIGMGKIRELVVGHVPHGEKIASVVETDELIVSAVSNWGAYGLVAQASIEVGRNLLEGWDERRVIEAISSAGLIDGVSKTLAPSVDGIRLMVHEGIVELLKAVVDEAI
Experiment: inorganic phosphate release (EnzChek / malachite green)
Type: biochemical
Details: 2 mM AMP, 2 mM MnCl2, 100 mM HEPES pH 7.5, 100 mM NaCl, 37°C; Mn2+-dependent

SMILES: Nc1ncnc2c1ncn2[C@@H]1O[C@H](COP(=O)(O)O)[C@@H](O)[C@H]1O [AMP]
- inorganic phosphate release (EnzChek / malachite green): The highest activity was observed with AMP
